The structures appear in SMILES notation.

Assay [1] has as its system Pseudomonas aeruginosa ATCC 9027. Nature of the assay: Synergistic antimicrobial activity as MIC, 96-well microplate, optical density at 620 nm. It counts as cell-based. The settings on record: for % MIC of A alone: Pseudomonas aeruginosa, growth <= 25%. From the text:
(§1) with: • MIC of A with B: minimum concentration of product A in the combination A+B which makes it possible to obtain an inhibitory effect; • MIC of B with A: minimum concentration of product B in the combination A+B which makes it possible to obtain an inhibitory effect; • MIC of A: minimum inhibitory concentration of product A alone; • MIC of B: minimum inhibitory concentration of product B alone. This formula was described for the first time in the article by F. C. Kull, […], and R. L. Mayer, Applied Microbiology 9:538-541, 1961. […] When the FIC index value is less than or equal to 1, it is considered that the combination of test compounds has a synergistic effect. The microbial strain Pseudomonas aeruginosa ATCC 9027 and a double-concentration nutrient broth liquid culture medium were used. A 96-well microplate at an incubation temperature of 32.5° C. is used. […] For each compound: […] 50 μl of each of the daughter solutions obtained containing compound A and 50 μl of each of the daughter solutions obtained containing compound B are added to the microplate wells. 100 μl of Sabouraud liquid nutrient broth inoculated at double concentration with the strain Aspergillus niger are also added thereto. A positive microbial growth control was also prepared. […] An absorbance control was performed in parallel on compounds A and B alone. This control corresponds to 100 μl of double concentration sterile Sabouraud liquid nutrient broth+100 μl of double concentration compound A or B. […] The test as described above (tests, absorbance control and growth control) was performed again to test the combination A+B on the following strains Enterococcus faecalis, Staphylococcus aureus, Pseudomonas aeruginosa, Candida albicans, where appropriate.

The test system of assay [2] is Candida albicans ATCC 10231. The description is as above. The format is cell-based. The settings on record: for microbial growth percentage: 0 B5 weight %.
Description: as §1, with “The microbial strain Pseudomonas aeruginosa ATCC 9027 and a double-concentration nutrient broth liquid culture medium were used.” left out

Consider `CCOc1cc(CCC(C)=O)ccc1O` [A, 4-(3-ethoxy-4-hydroxyphenyl)butan-2-one], for which the microbial growth percentage in assay [1] (0.0625 A, 0 B4 weight %) is listed as 63%; in assay [1] (0.0625 A, 0 B6 weight %) it was 80%; in assay [1] (0.125 A, 0 B4 weight %), 60%; in assay [1] (0.125 A, 0 B6 weight %), 63%; in assay [1] (0.25 A, 0 B4 weight %), 64%; in assay [1] (0.25 A, 0 B6 weight %), 56%. In addition, the microbial growth percentage in assay [1] (0.5 A, 0 B4 weight %) was 62%; in assay [1] (0.5 A, 0 B6 weight %) it was 61%; in assay [1] (1 A, 0 B4 weight %), 7%; in assay [1] (1 A, 0 B6 weight %), −17%; in assay [2] (0.025 A), 69%; in assay [2] (0.05 A), 54%. Also, the microbial growth percentage in assay [2] (0.1 A) is given as 27%; in assay [2] (0.2 A) it was 4%. The “% MIC of A alone” value in assay [1] (Example 4) was 1%; in assay [1] (Example 6), 1%; in assay [2] (Candida albicans, Example 5, growth <= 25%), 0.2%.

The record behind these values is patent publication US20220174947A1, “ANTIMICROBIAL MIXTURE CONTAINING 4-(3-ETHOXY-4-HYDROXYPHENYL)BUTAN-2-ONE AND AN ALCOHOL COMPOUND, AND COSMETIC COMPOSITION CONTAINING SAME” (L'OREAL, priority 2018, published 2022).
